Laboratory results published in ChEMBL document CHEMBL1201861, “Genomics of Drug Sensitity in Cancer screening data, Wellcome Trust Sanger Institute”.

How the values were obtained:
Raji = experiment: cells; assay type: functional, cell-based; settings: Homo sapiens;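 further: cell viability assay measuring inhibition of Raji cell growth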
Description: SANGER: Inhibition of human Raji cell growth in a cell viability assay.

KMS-12-PE = experiment: cells; assay type: functional, cell-based; settings: Homo sapiens;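 further: growth inhibition of human KMS-12-PE cells, measured with a cell viability assay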
Description: SANGER: Inhibition of human KMS-12-PE cell growth in a cell viability assay.

REH = experiment: cells; assay type: functional, cell-based; settings: Homo sapiens;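 further: growth inhibition of REH cells determined with a cell viability read-out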
Description: SANGER: Inhibition of human REH cell growth in a cell viability assay.

Kasumi 1 = experiment: cells; assay type: functional, cell-based; settings: Homo sapiens;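 further: growth inhibition of human Kasumi-1 cells, read out by a cell viability assay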
Description: SANGER: Inhibition of human KASUMI-1 cell growth in a cell viability assay.

BOKU = experiment: cells; assay type: functional, cell-based; settings: Homo sapiens;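 further: growth inhibition of the human BOKU cell line, read out by a cell viability assay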
Description: SANGER: Inhibition of human BOKU cell growth in a cell viability assay.

KARPAS-422 = experiment: cells; assay type: functional, cell-based; settings: Homo sapiens
Description: SANGER: Inhibition of human KARPAS-422 cell growth in a cell viability assay.

A4-Fuk = experiment: cells; assay type: functional, cell-based; settings: Homo sapiens;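 further: growth inhibition of A4-Fuk cells, read out by a cell viability assay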
Description: SANGER: Inhibition of human A4-Fuk cell growth in a cell viability assay.

KALS-1 = experiment: cells; assay type: functional, cell-based, Homo sapiens; settings: Homo sapiens, KALS-1;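 further: growth inhibition of KALS-1 cells, determined with a cell viability assay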
Description: SANGER: Inhibition of human KALS-1 cell growth in a cell viability assay.

NCI-H2081 = experiment: cells; assay type: functional, cell-based; settings: Homo sapiens;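 further: growth inhibition of human NCI-H2081 cells, read out with a cell viability assay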
Description: SANGER: Inhibition of human NCI-H2081 cell growth in a cell viability assay.

NCI-H1436 = experiment: cells; assay type: functional, cell-based; settings: Homo sapiens;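 further: growth suppression of human NCI-H1436 cells, determined with a cell viability readout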
Description: SANGER: Inhibition of human NCI-H1436 cell growth in a cell viability assay.

D283 Med = experiment: cells; assay type: functional, cell-based, Homo sapiens; settings: Homo sapiens, D283 Med
Description: SANGER: Inhibition of human D-283MED cell growth in a cell viability assay.

SCC-3 = experiment: cells; assay type: functional, cell-based; settings: Homo sapiens;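 further: cell viability assay measuring inhibition of SCC-3 cell growth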
Description: SANGER: Inhibition of human SCC-3 cell growth in a cell viability assay.

Lu-65 = experiment: cells; assay type: functional, cell-based; settings: Homo sapiens;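 further: growth inhibition of Lu-65 cancer cells, read out by a cell viability assay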
Description: SANGER: Inhibition of human LU-65 cell growth in a cell viability assay.

NB17 = experiment: cells; assay type: functional, cell-based; settings: Homo sapiens;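 further: growth inhibition of NB17 cells, read out with a cell viability assay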
Description: SANGER: Inhibition of human NB17 cell growth in a cell viability assay.

IMR-5 = experiment: cells; assay type: functional, cell-based; settings: Homo sapiens;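 further: growth inhibition of human IMR-5 cells, read out with a cell viability assay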
Description: SANGER: Inhibition of human IMR-5 cell growth in a cell viability assay.

SUP-T1 = experiment: cells; assay type: functional, cell-based; settings: Homo sapiens;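 further: growth inhibition of human SUP-T1 cells, read out as cell viability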
Description: SANGER: Inhibition of human SUP-T1 cell growth in a cell viability assay.

EB-3 = experiment: cells; assay type: functional, cell-based; settings: Homo sapiens;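 further: human EB-3 cells, growth inhibition read out via a cell viability assay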
Description: SANGER: Inhibition of human EB-3 cell growth in a cell viability assay.

SNU-C1 = experiment: cells; assay type: functional, cell-based; settings: Homo sapiens;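 further: growth inhibition of SNU-C1 human cells, read out by a cell viability assay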
Description: SANGER: Inhibition of human SNU-C1 cell growth in a cell viability assay.

NCI-H345 = experiment: cells; assay type: functional, cell-based; settings: Homo sapiens;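 further: growth inhibition of NCI-H345 cells measured with a cell viability assay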
Description: SANGER: Inhibition of human NCI-H345 cell growth in a cell viability assay.

ST486 = experiment: SANGER: Inhibition of human ST486 cell growth in a cell viability assay.; assay type: functional, cell-based
NCI-H1963 = experiment: cells; assay type: functional, cell-based; settings: Homo sapiens
Description: SANGER: Inhibition of human NCI-H1963 cell growth in a cell viability assay.

BC1 cell line = experiment: SANGER: Inhibition of human BC-1 cell growth in a cell viability assay.; assay type: functional, cell-based
ARH-77 = experiment: cells; assay type: functional, cell-based; settings: Homo sapiens;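 further: growth inhibition of ARH-77 cells, read out by a cell viability assay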
Description: SANGER: Inhibition of human ARH-77 cell growth in a cell viability assay.

MRK-nu-1 = experiment: cells; assay type: functional, cell-based; settings: Homo sapiens;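 further: cell viability assay measuring growth suppression of human MRK-nu-1 cells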
Description: SANGER: Inhibition of human MRK-nu-1 cell growth in a cell viability assay.

KURAMOCHI = experiment: cells; assay type: functional, cell-based; settings: Homo sapiens;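 further: growth inhibition of KURAMOCHI cells, read out with a cell viability assay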
Description: SANGER: Inhibition of human KURAMOCHI cell growth in a cell viability assay.

NCI-H889 = experiment: cells; assay type: functional, cell-based; settings: Homo sapiens;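 further: cell growth inhibition of the cell line, read out with a viability assay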
Description: SANGER: Inhibition of human NCI-H889 cell growth in a cell viability assay.

SR = experiment: cells; assay type: functional, cell-based; settings: Homo sapiens
Description: SANGER: Inhibition of human SR cell growth in a cell viability assay.

ECC4 = experiment: cells; assay type: functional, cell-based; settings: Homo sapiens;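 further: growth inhibition of ECC4 cells, read out with a cell viability assay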
Description: SANGER: Inhibition of human ECC4 cell growth in a cell viability assay.

Daudi = experiment: cells; assay type: functional, cell-based; settings: Homo sapiens;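 further: growth inhibition of Daudi cells, read out by a viability assay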
Description: SANGER: Inhibition of human Daudi cell growth in a cell viability assay.

NCI-H2141 = experiment: cells; assay type: functional, cell-based; settings: Homo sapiens;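 further: growth inhibition of human NCI-H2141 cells, read out with a cell viability assay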
Description: SANGER: Inhibition of human NCI-H2141 cell growth in a cell viability assay.

NCI-H524 = experiment: cells; assay type: functional, cell-based; settings: Homo sapiens;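 further: growth inhibition of human NCI-H524 cells, read out through a cell viability assay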
Description: SANGER: Inhibition of human NCI-H524 cell growth in a cell viability assay.

K052 = experiment: cells; assay type: functional, cell-based; settings: Homo sapiens;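 further: Read-out from a cell viability assay, IC50 reflecting suppression of K052 cell growth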
Description: SANGER: Inhibition of human K052 cell growth in a cell viability assay.

CA46 = experiment: cells; assay type: functional, cell-based; settings: Homo sapiens;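 further: growth inhibition of human CA46 cells, read out by a cell viability assay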
Description: SANGER: Inhibition of human CA46 cell growth in a cell viability assay.

NCI-H1694 = experiment: cells; assay type: functional, cell-based; settings: Homo sapiens;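 further: cell viability assay measuring inhibition of growth in human NCI-H1694 cells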
Description: SANGER: Inhibition of human NCI-H1694 cell growth in a cell viability assay.

MOLT-13 = experiment: cells; assay type: functional, cell-based; settings: Homo sapiens;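 further: IC50 for suppression of MOLT-13 cell growth, read out with a cell viability assay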
Description: SANGER: Inhibition of human MOLT-13 cell growth in a cell viability assay.

L-540 = experiment: cells; assay type: functional, cell-based; settings: Homo sapiens;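 further: growth inhibition of the human L-540 cell line, read out with a viability assay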
Description: SANGER: Inhibition of human L-540 cell growth in a cell viability assay.

LB647-SCLC = experiment: cells; assay type: functional, cell-based; settings: Homo sapiens;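 further: cell growth inhibition, read out by a viability assay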
Description: SANGER: Inhibition of human LB647-SCLC cell growth in a cell viability assay.

TE-15 = experiment: cells; assay type: functional, cell-based; settings: Homo sapiens;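 further: cell viability readout of growth inhibition in TE-15 cells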
Description: SANGER: Inhibition of human TE-15 cell growth in a cell viability assay.

GI-1 = experiment: cells; assay type: functional, cell-based, Homo sapiens; settings: Homo sapiens, GI-1;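 further: growth inhibition of human GI-1 cells, measured with a cell viability readout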
Description: SANGER: Inhibition of human GI-1 cell growth in a cell viability assay.

G-361 = experiment: cells; assay type: functional, cell-based, Homo sapiens; settings: Homo sapiens, G-361
NB12 = experiment: cells; assay type: functional, cell-based, Homo sapiens; settings: Homo sapiens, NB12;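 further: growth inhibition of human NB12 cells, read out by a cell viability assay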
Description: SANGER: Inhibition of human NB12 cell growth in a cell viability assay.

KU-19-19 = experiment: cells; assay type: functional, cell-based, Homo sapiens; settings: Homo sapiens, KU-19-19
Description: SANGER: Inhibition of human KU-19-19 cell growth in a cell viability assay.

NCI-H1703 = experiment: cells; assay type: functional, cell-based, Homo sapiens; settings: Homo sapiens, NCI-H1703;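 further: growth inhibition of NCI-H1703 cells, read out via a cell viability assay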
Description: SANGER: Inhibition of human NCI-H1703 cell growth in a cell viability assay.

OAW-42 = experiment: cells; assay type: functional, cell-based, Homo sapiens; settings: Homo sapiens, OAW-42;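 further: growth inhibition of OAW-42 cells, read out with a cell viability assay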
Description: SANGER: Inhibition of human OAW-42 cell growth in a cell viability assay.

SAS = experiment: cells; assay type: functional, cell-based, Homo sapiens; settings: Homo sapiens, SAS;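 further: growth inhibition of SAS cells, read out with a cell viability assay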
Description: SANGER: Inhibition of human SAS cell growth in a cell viability assay.

OAW-28 = experiment: cells; assay type: functional, cell-based, Homo sapiens; settings: Homo sapiens, OAW-28;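 further: growth inhibition of OAW-28 cells, read out with a cell viability assay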
Description: SANGER: Inhibition of human OAW-28 cell growth in a cell viability assay.

CAKI-1 = experiment: cells; assay type: functional, cell-based, Homo sapiens; settings: Homo sapiens, CAKI-1;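 further: growth inhibition of CAKI-1 cells, measured by a cell viability assay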
Description: SANGER: Inhibition of human CAKI-1 cell growth in a cell viability assay.

NCI-H1299 = experiment: cells; assay type: functional, cell-based, Homo sapiens; settings: Homo sapiens, NCI-H1299;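 further: growth inhibition of human NCI-H1299 cells, read out by a cell viability assay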
Description: SANGER: Inhibition of human NCI-H1299 cell growth in a cell viability assay.

NCI-H2009 = experiment: cells; assay type: functional, cell-based, Homo sapiens; settings: Homo sapiens, NCI-H2009;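 further: cell viability assay measuring inhibition of NCI-H2009 cell growth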
Description: SANGER: Inhibition of human NCI-H2009 cell growth in a cell viability assay.

Ca9-22 = experiment: cells; assay type: functional, cell-based, Homo sapiens; settings: Homo sapiens, Ca9-22;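 further: growth inhibition of Ca9-22 cells, read out with a cell viability assay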
Description: SANGER: Inhibition of human Ca9-22 cell growth in a cell viability assay.

SW1990 = experiment: cells; assay type: functional, cell-based, Homo sapiens; settings: Homo sapiens, SW1990
Description: SANGER: Inhibition of human SW1990 cell growth in a cell viability assay.

G-402 = experiment: cells; assay type: functional, cell-based, Homo sapiens; settings: Homo sapiens, G-402
Description: SANGER: Inhibition of human G-402 cell growth in a cell viability assay.

DoTc2-4510 = experiment: cells; assay type: functional, cell-based, Homo sapiens; settings: Homo sapiens, DoTc2-4510
PANC-08-13 = experiment: cells; assay type: functional, cell-based, Homo sapiens; settings: Homo sapiens, PANC-08-13
Description: SANGER: Inhibition of human PANC-08-13 cell growth in a cell viability assay.

Compound: CCC(=O)N1CCN(c2ccc(-n3c(=O)ccc4cnc5ccc(-c6cnc7ccccc7c6)cc5c43)cc2C(F)(F)F)CC1 [TORIN1]
- IC50 (Raji): > 1200 nM
- IC50 (KMS-12-PE): > 1200 nM
- IC50 (REH): > 1200 nM
- IC50 (Kasumi 1): > 1200 nM
- IC50 (BOKU): 372 nM
- IC50 (KARPAS-422): 124 nM
- IC50 (A4-Fuk): 13.2 nM
- IC50 (KALS-1): 12 nM
- IC50 (NCI-H2081): > 1200 nM
- IC50 (NCI-H1436): > 1200 nM
- IC50 (D283 Med): > 1200 nM
- IC50 (SCC-3): 129 nM
- IC50 (Lu-65): > 1200 nM
- IC50 (NB17): 117 nM
- IC50 (IMR-5): 165 nM
- IC50 (SUP-T1): > 1200 nM
- IC50 (EB-3): 36.4 nM
- IC50 (SNU-C1): 382 nM
- IC50 (NCI-H345): > 1200 nM
- IC50 (ST486): 106 nM
- IC50 (NCI-H1963): 626 nM
- IC50 (BC1 cell line): > 1200 nM
- IC50 (ARH-77): 72.8 nM
- IC50 (MRK-nu-1): 7.07 nM
- IC50 (KURAMOCHI): 24.1 nM
- IC50 (NCI-H889): > 1200 nM
- IC50 (SR): 63.7 nM
- IC50 (ECC4): 1190 nM
- IC50 (Daudi): 42.3 nM
- IC50 (NCI-H2141): 1190 nM
- IC50 (NCI-H524): 587 nM
- IC50 (K052): 119 nM
- IC50 (CA46): 509 nM
- IC50 (NCI-H1694): 507 nM
- IC50 (MOLT-13): 302 nM
- IC50 (L-540): 301 nM
- IC50 (LB647-SCLC): 117 nM
- IC50 (TE-15): 44.3 nM
- IC50 (GI-1): 24.7 nM

Compound: CCC1=C[C@@H]2CN(C1)Cc1c([nH]c3ccccc13)[C@@](C(=O)OC)(c1cc3c(cc1OC)N(C)[C@H]1[C@@](O)(C(=O)OC)[C@H](OC(C)=O)[C@]4(CC)C=CCN5CC[C@]31[C@@H]54)C2 [VINORELBINE]
- IC50 (Raji): > 64 nM
- IC50 (KMS-12-PE): 60.1 nM
- IC50 (REH): 7.21 nM
- IC50 (Kasumi 1): 17.7 nM
- IC50 (BOKU): > 64 nM
- IC50 (G-361): 3.53 nM
- IC50 (NB12): 2.11 nM
- IC50 (KU-19-19): > 64 nM
- IC50 (NCI-H1703): 2.83 nM
- IC50 (KARPAS-422): 23.3 nM
- IC50 (A4-Fuk): 4.04 nM
- IC50 (KALS-1): 3.9 nM
- IC50 (OAW-42): 42.5 nM
- IC50 (SAS): > 64 nM
- IC50 (NCI-H2081): 33.6 nM
- IC50 (NCI-H1436): 13.6 nM
- IC50 (OAW-28): 15.2 nM
- IC50 (CAKI-1): > 64 nM
- IC50 (NCI-H1299): 13.6 nM
- IC50 (NCI-H2009): 8.46 nM
- IC50 (D283 Med): > 64 nM
- IC50 (SCC-3): > 64 nM
- IC50 (Lu-65): 24.5 nM
- IC50 (Ca9-22): 10.3 nM
- IC50 (IMR-5): 11.3 nM
- IC50 (SUP-T1): 4.72 nM
- IC50 (EB-3): > 64 nM
- IC50 (SNU-C1): > 64 nM
- IC50 (NCI-H345): 44.9 nM
- IC50 (SW1990): > 64 nM
- IC50 (G-402): 32.1 nM
- IC50 (DoTc2-4510): 3.59 nM
- IC50 (ST486): 2.96 nM
- IC50 (NCI-H1963): 30.3 nM
- IC50 (BC1 cell line): 9.39 nM
- IC50 (ARH-77): 17.8 nM
- IC50 (MRK-nu-1): 4.47 nM
- IC50 (PANC-08-13): 46.9 nM
- IC50 (KURAMOCHI): 2.81 nM
- IC50 (NCI-H889): 40.3 nM
- IC50 (SR): 5.84 nM
- IC50 (ECC4): > 64 nM
- IC50 (Daudi): > 64 nM
- IC50 (NCI-H2141): 39 nM
- IC50 (NCI-H524): > 64 nM
- IC50 (K052): 21.2 nM
- IC50 (CA46): 22.2 nM
- IC50 (NCI-H1694): 44.4 nM
- IC50 (L-540): 30 nM
- IC50 (LB647-SCLC): 6.89 nM
- IC50 (TE-15): 3.1 nM
- IC50 (GI-1): 3.54 nM
